This note sets out measurements from patent US7462614B2, “Imidazotriazine compounds” (Smithkline Beecham Corporation, priority 2003, dated 2008).

The target of the experiment is T1, truncated human PLK1 (kinase domain) (Homo sapiens, UniProt P53350).
T1 construct: made in house; host or cells: baculovirus-infected T. ni insect cells
T1 sequence (P53350 21-346): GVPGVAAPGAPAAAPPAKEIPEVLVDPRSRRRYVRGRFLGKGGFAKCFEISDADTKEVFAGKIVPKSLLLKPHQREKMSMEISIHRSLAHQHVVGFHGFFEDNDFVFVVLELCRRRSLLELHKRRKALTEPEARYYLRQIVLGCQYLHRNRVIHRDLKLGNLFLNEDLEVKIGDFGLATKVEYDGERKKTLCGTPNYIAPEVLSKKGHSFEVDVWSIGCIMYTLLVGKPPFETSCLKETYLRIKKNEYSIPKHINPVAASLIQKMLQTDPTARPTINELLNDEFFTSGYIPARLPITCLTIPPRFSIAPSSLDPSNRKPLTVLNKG
Description: Assay for Inhibition of PLK1 (33P SPA enzyme activity). Type of experiment: biochemical. The conditions noted are these: 1 μM ATP, 2 nM enzyme; read-out: Ave pIC50 PLK Enzyme Inhibition (converted). The method, then: I. Assay for Inhibition of PLK1
A. Preparation of 6× N-Terminal His-Tagged PLK Kinase Domain
All procedures are performed at 4° C. Cells are lysed in 25 mM HEPES, 200 mM NaCl, 25 mM imidazole; pH 8.0. The homogenate is centrifuged at 14K rpm in a SLA-1500 rotor for 40 min and the supernatant filtered through a 1.2 micron filter. The supernatant is loaded onto a Nickel chelating Sepharose (Amersham Pharmacia) column and washed with 25 mM HEPES, 500 mM NaCl, 25 mM imidazole; pH 8.0. […] PLK is concentrated using a 10 kDa molecular weight cutoff membrane and then loaded onto a Superdex 75 gel filtration (Amersham BioSciences) column equilibrated in 25 mM HEPES, 1 mM DTT, 500 mM NaCl; pH 8.0. Fractions containing PLK are determined by SDS-PAGE. PLK is pooled, aliquoted and stored at […]. Samples are quality controlled using mass spectrometry.
B. Enzyme Activity±Inhibitors is Determined As Follows:
Compounds are added to the plate (1 μL in 100% DMSO).
Immediately upon addition of enzyme and thorough mixing, add 20 uL per well into 384-well white plates containing compounds and controls. […] The enzymatic reaction is stopped with 50 μl of bead mix (50 mM EDTA, 2 mg/ml Streptavidin-coated SPA beads in Standard Dulbecco's PBS (without Mg^2+and Ca^2+), and 60 μM ATP).
Take `COc1cc(Nc2ncc3c(C)nc(-c4ccccc4[N+](=O)[O-])n3n2)cc(OC)c1OC` [Example 2, 5-Methyl-7-(2-nitrophenyl)-N-(3,4,5-trimethoxyvhenyl)imidazo[5,1-f][1,2,4]triazin-2-amine]: the IC50 was 100 to 10000 nM.

On to `COc1cc(Nc2ncc3c(C)nc(-c4ccccc4Br)n3n2)cc(OC)c1OC` [Example 3], for which the IC50 is 100 to 10000 nM.

On to `COc1cc(Nc2ncc3c(C)nc(-c4ccc(F)cc4)n3n2)cc(OC)c1OC` [Example 4, 7-(4-Fluorophenyl)-5-methyl-N-(3,4,5-trimethoxyphenyl)imidazo-[5,1-f][1,2,4]triazin-2-amine], for which the IC50 was below 100 nM.

With `COc1cc(Nc2ncc3c(C)nc(-c4ccccc4NC(=O)C(C)(C)C)n3n2)cc(OC)c1OC` [Example 6, 2,2-Dimethyl-N-(2-{5-methyl-2-[(3,4,5-trimethoxyphenyl)amino]-imidazo[5,1-f][1,2,4]triazin-7-yl}phenyl)propanamide], the IC50 was above 10000 nM.

In the case of `COc1cc(Nc2ncc3c(C)nc(-c4ccccc4NC(=O)C(F)(F)F)n3n2)cc(OC)c1OC` [Example 7, 2,2,2-Trifluoro-N-(2-{5-methyl-2-[(3,4,5-trimethoxyphenyl)amino]-imidazo[5,1-f][1,2,4]triazin-7-yl}phenyl)acetamide], the IC50 was 100 to 10000 nM.

With `COc1cc(Nc2ncc3c(C)nc(-c4sccc4Br)n3n2)cc(OC)c1OC` [Example 10, 7-(3-Bromothien-2-yl)-5-methyl-N-(3,4,5-trimethoxyphenyl)-imidazo[1,5-f][1,2,4]triazin-2-amine], the IC50 is 100 to 10000 nM.

With `COc1cc(Nc2ncc3c(C)nc(-c4cncc(Br)c4)n3n2)cc(OC)c1OC` [Example 11, 7-(5-Bromopyridin-3-yl)-5-methyl-N-(3,4,5-trimethoxyphenyl)-imidazo[5.1-f][1,2,4]triazin-2-amine], the IC50 was 100 to 10000 nM.

For the molecule `COC(=O)c1cccc(-c2nc(C)c3cnc(Nc4cc(OC)c(OC)c(OC)c4)nn23)c1` [Example 12, Methyl 3-{5-methyl-2-[(3,4,5-trimethoxyphenyl)amino]imidazo[5,1-f][1,2,4]triazin-7-yl}benzoate], the IC50 is 100 to 10000 nM.

Regarding `COc1cc(Nc2ncc3c(C)nc(-c4ccc(Br)s4)n3n2)cc(OC)c1OC` [Example 13, 7-(5-Bromothien-2-yl)-5-methyl-N-(3,4,5-trimethoxyphenyl)imidazo-[5,1-f][1,2,4]triazin-2-amine], the IC50 was 100 to 10000 nM.

As to `CCS(=O)(=O)c1ccc(OC)c(Nc2ncc3c(C)nc(-c4cccc(Br)c4)n3n2)c1` [Example 14, 7-(3-Bromophenyl)-N-[5-(ethylsulfonyl)-2-methoxyphenyl]-5-methylimidazo[5,1-f][1,2,4]triazin-2-amine], the IC50 is 100 to 10000 nM.

With `Cc1nc(-c2cccc(Br)c2)n2nc(Nc3ccc(N4CCOCC4)c(Cl)c3)ncc12` [Example 15, 7-(3-Bromophenyl)-N-(3-chloro-4-morpholin-4-ylphenyl)-5-methylimidazo[5,1-f][1,2,4]triazin-2-amine], the IC50 was 100 to 10000 nM.

For `COc1cc(Nc2ncc3c(C)nc(-c4cccc(/C=C/C(N)=O)c4)n3n2)cc(OC)c1OC` [Example 17, (2E)-3-(3-{5-Methyl-2-[(3,4,5-trimethoxyphenyl)amino]imidazo[5,1-f][1 2,4]triazin-7-yl}phenyl)prop-2-enamide], the IC50 is below 100 nM.

Consider `Cc1nc(-c2ccccc2)n2nc(Nc3ccc([N+](=O)[O-])cc3)ncc12` [Example 18, 5-Methyl-N-(4-nitrophenyl)-7-phenylimidazo[5,1-f][1,2,4]triazin-2-amine], for which the IC50 was 100 to 10000 nM.

With `Cc1nc(-c2ccccc2)n2nc(Nc3ccc(S(N)(=O)=O)cc3)ncc12` [Example 20, 4-[(5-Methyl-7-phenylimidazo[5,1-f][1,2,4]triazin-2-yl)amino]benzenesulfonamide], the IC50 was 100 to 10000 nM.

Consider `COc1ccccc1-c1nc(C)c2cnc(Nc3cc(OC)c(OC)c(OC)c3)nn12` [Example 21, 7-(2-Methoxyphenyl)-5-methyl-N-(3,4,5-trimethoxyphenyl)-imidazo[5,1-f][1,2,4]triazin-2-amine], for which the IC50 was 100 to 10000 nM.
